Assay results reported in ChEMBL document CHEMBL1240385, “Detection of KPC in Acinetobacter spp. in Puerto Rico” (2010).
Values after ≈ are worked out from the molar mass of the structure shown.

How the values were obtained:
Assay type in all cases: functional
[1] = (§1) Antibacterial activity against Acinetobacter calcoaceticus/baumannii complex isolate C1AC9-24 expressing KPC beta lactamase
[2] = (§2) Antibacterial activity against Acinetobacter calcoaceticus/baumannii complex isolate M2AC9-31 expressing KPC beta lactamase
[3] = (§3) Antibacterial activity against Acinetobacter calcoaceticus/baumannii complex isolate M3AC9-2 expressing KPC beta lactamase
[4] = (§4) Antibacterial activity against Acinetobacter calcoaceticus/baumannii complex isolate M3AC9-4 expressing KPC beta lactamase
[5] = (§5) Antibacterial activity against Acinetobacter calcoaceticus/baumannii complex isolate M3AC9-6 expressing KPC beta lactamase
[6] = (§6) Antibacterial activity against Acinetobacter calcoaceticus/baumannii complex isolate M3AC9-7 expressing KPC beta lactamase
[7] = (§7) Antibacterial activity against Acinetobacter calcoaceticus/baumannii complex isolate MC1AC9-26 expressing KPC beta lactamase
[8] = (§8) Antibacterial activity against Acinetobacter calcoaceticus/baumannii complex isolate MC4AC9-30 expressing KPC beta lactamase
[9] = (§9) Antibacterial activity against Acinetobacter calcoaceticus/baumannii complex isolate N2AC9-18 expressing KPC beta lactamase
[10] = (§10) Antibacterial activity against Acinetobacter calcoaceticus/baumannii complex isolate N2AC9-19 expressing KPC beta lactamase
[11] = (§11) Antibacterial activity against Acinetobacter calcoaceticus/baumannii complex isolate W2AC8-S10 expressing OXA-51
Escherichia coli = assay: Antibacterial activity against Escherichia coli ATCC 25922 […]
Pseudomonas aeruginosa = assay: Antibacterial activity against Pseudomonas aeruginosa ATCC 27853 […]
[12] = test system: Acinetobacter calcoaceticus/baumannii complex; assay: as §1
[13] = test system: Acinetobacter calcoaceticus/baumannii complex; assay: as §2
[14] = test system: Acinetobacter calcoaceticus/baumannii complex; assay: as §3
[15] = test system: Acinetobacter calcoaceticus/baumannii complex; assay: as §4
[16] = test system: Acinetobacter calcoaceticus/baumannii complex; assay: as §5
[17] = test system: Acinetobacter calcoaceticus/baumannii complex; assay: as §6
[18] = test system: Acinetobacter calcoaceticus/baumannii complex; assay: as §7
[19] = test system: Acinetobacter calcoaceticus/baumannii complex; assay: as §8
[20] = test system: Acinetobacter calcoaceticus/baumannii complex; assay: as §9
[21] = test system: Acinetobacter calcoaceticus/baumannii complex; assay: as §10
[22] = test system: Acinetobacter calcoaceticus/baumannii complex; assay: as §11

Compound	MIC [1] [µg/mL]	MIC [2] [µg/mL]	MIC [3] [µg/mL]	MIC [4] [µg/mL]	MIC [5] [µg/mL]	MIC [6] [µg/mL]	MIC [7] [µg/mL]	MIC [8] [µg/mL]	MIC [9] [µg/mL]	MIC [10] [µg/mL]	MIC [11] [µg/mL]	MIC (Escherichia coli) [µg/mL]	MIC (Pseudomonas aeruginosa) [µg/mL]	also measured
CN(C)c1cc(NC(=O)CNC(C)(C)C)c(O)c2c1C[C@H]1C[C@H]3[C@H](N(C)C)C(O)=C(C(N)=O)C(=O)[C@@]3(O)C(O)=C1C2=O [TIGECYCLINE]	1 (≈ 1.71 µM)	1 (≈ 1.71 µM)	0.5 (≈ 0.854 µM)	0.25 (≈ 0.427 µM)	0.5 (≈ 0.854 µM)	0.5 (≈ 0.854 µM)	2 (≈ 3.41 µM)	0.5 (≈ 0.854 µM)	1 (≈ 1.71 µM)	2 (≈ 3.41 µM)	< 0.25	0.25 (≈ 0.427 µM)	8 (≈ 13.7 µM)	–
CO/N=C(\C(=O)N[C@@H]1C(=O)N2C(C(=O)[O-])=C(C[N+]3(C)CCCC3)CS[C@H]12)c1csc(N)n1	> 16	> 16	> 16	> 16	> 16	> 16	> 16	> 16	> 16	> 16	2 (≈ 4.16 µM)	2 (≈ 4.16 µM)	< 2	–
C[C@@H](O)[C@H]1C(=O)N2C(C(=O)O)=C(S[C@@H]3CN[C@H](CNS(N)(=O)=O)C3)[C@H](C)[C@H]12 [DORIPENEM]	> 2	> 2	> 2	> 2	> 2	> 2	> 2	> 2	> 2	> 2	0.12 (≈ 0.285 µM)	0.12 (≈ 0.285 µM)	0.5 (≈ 1.19 µM)	–
O=C(O)c1cn(C2CC2)c2cc(N3CCNCC3)c(F)cc2c1=O [CIPROFLOXACIN]	–	–	–	–	–	–	–	–	–	–	0.25 (≈ 0.754 µM)	–	–	–
C[C@@H](O)[C@H]1C(=O)N2C(C(=O)O)=C(S[C@@H]3CN[C@H](C(=O)N(C)C)C3)[C@H](C)[C@H]12 [MEROPENEM]	4 (≈ 10.4 µM)	> 8	> 8	> 8	> 8	> 8	> 8	> 8	> 8	> 8	1 (≈ 2.61 µM)	1 (≈ 2.61 µM)	< 1	–
C[C@H]1COc2c(N3CCN(C)CC3)c(F)cc3c(=O)c(C(=O)O)cn1c23.C[C@H]1COc2c(N3CCN(C)CC3)c(F)cc3c(=O)c(C(=O)O)cn1c23.O [LEVOFLOXACIN]	> 8	> 8	> 8	> 8	> 8	> 8	> 8	> 8	> 8	> 8	1	–	< 1	–
CO/N=C(\C(=O)N[C@@H]1C(=O)N2C(C(=O)O)=C(COC(C)=O)CS[C@H]12)c1csc(N)n1 [CEFOTAXIME]	> 32	> 32	> 32	> 32	> 32	> 32	> 32	> 32	> 32	> 32	4 (≈ 8.78 µM)	1 (≈ 2.2 µM)	16 (≈ 35.1 µM)	–
POLYMYXIN B	–	–	–	–	–	–	–	–	–	–	–	0.25	1	MIC [12]: 0.5 µg/mL; MIC [13]: < 0.25 µg/mL; MIC [14]: < 0.25 µg/mL; MIC [15]: < 0.25 µg/mL; MIC [16]: 0.5 µg/mL; MIC [17]: 0.5 µg/mL; MIC [18]: < 0.25 µg/mL; MIC [19]: 0.5 µg/mL; MIC [20]: < 0.25 µg/mL; MIC [21]: < 0.25 µg/mL; MIC [22]: 0.5 µg/mL
C[C@@H](O)[C@H]1C(=O)N2C(C(=O)O)=C(SCCNC=N)C[C@H]12 [IMIPENEM ANHYDROUS]	4 (≈ 13.4 µM)	8 (≈ 26.7 µM)	> 8	> 8	> 8	> 8	8 (≈ 26.7 µM)	8 (≈ 26.7 µM)	> 8	> 8	1 (≈ 3.34 µM)	1 (≈ 3.34 µM)	2 (≈ 6.68 µM)	–
CC(C)(O/N=C(\C(=O)N[C@@H]1C(=O)N2C(C(=O)[O-])=C(C[n+]3ccccc3)CS[C@H]12)c1csc(N)n1)C(=O)O [CEFTAZIDIME]	> 16	> 16	> 16	> 16	> 16	> 16	> 16	> 16	> 16	> 16	2 (≈ 3.66 µM)	1 (≈ 1.83 µM)	2 (≈ 3.66 µM)	–
NCC[C@H](O)C(=O)N[C@@H]1C[C@H](N)[C@@H](O[C@H]2O[C@H](CN)[C@@H](O)[C@H](O)[C@H]2O)[C@H](O)[C@H]1O[C@H]1O[C@H](CO)[C@@H](O)[C@H](N)[C@H]1O [AMIKACIN]	> 32	> 32	> 32	> 32	> 32	> 32	> 32	> 32	> 32	> 32	4 (≈ 6.83 µM)	4 (≈ 6.83 µM)	< 4	–
CN(C)c1ccc(O)c2c1C[C@H]1C[C@H]3[C@H](N(C)C)C(O)=C(C(N)=O)C(=O)[C@@]3(O)C(O)=C1C2=O [MINOCYCLINE]	8 (≈ 17.5 µM)	< 2	< 2	4 (≈ 8.74 µM)	< 2	< 2	< 2	4 (≈ 8.74 µM)	< 2	< 2	2 (≈ 4.37 µM)	2 (≈ 4.37 µM)	16 (≈ 35 µM)	–
GENTAMICIN	–	–	–	–	–	–	–	–	–	–	–	1	< 1	MIC [12]: > 8 µg/mL; MIC [13]: > 8 µg/mL; MIC [14]: 2 µg/mL; MIC [15]: > 8 µg/mL; MIC [16]: 2 µg/mL; MIC [17]: < 1 µg/mL; MIC [18]: 8 µg/mL; MIC [19]: > 8 µg/mL; MIC [20]: > 8 µg/mL; MIC [21]: > 8 µg/mL; MIC [22]: 1 µg/mL
COLISTIN	–	–	–	–	–	–	–	–	–	–	–	0.25	1	MIC [12]: 1 µg/mL; MIC [13]: 0.5 µg/mL; MIC [14]: 0.5 µg/mL; MIC [15]: 1 µg/mL; MIC [16]: 1 µg/mL; MIC [17]: 1 µg/mL; MIC [18]: 0.5 µg/mL; MIC [19]: 0.5 µg/mL; MIC [20]: 0.5 µg/mL; MIC [21]: 0.5 µg/mL; MIC [22]: 0.25 µg/mL
